Measurements published in patent US20130210852A1, “METHODS FOR TREATING INFECTION” (priority 2010, published 2013).
Converted amounts (≈) assume the structure as drawn. “Also recorded” adds a separate entry of the source. Where two headings read alike, the source gives them in different places.

Key:
[1] = system: EAEC strain O42 adherence to HEp-2 cells; assay type: cell-based, human
[2] = system: EAEC strain O42 adherence to HeLa cells; assay type: cell-based, human; details: 24 h pretreatment with 64 mg (FIG. 2: 64 μg/ml), EAEC 3 h
[3] = system: EAEC strain O42 adherence to A549 cells; assay type: cell-based, human; details: 24 h pretreatment with 64 mg (FIG. 2: 64 μg/ml), EAEC 3 h
[4] = system: EAEC strain O42 adherence to HCT-8 cells; assay type: cell-based, human; details: 24 h pretreatment with 64 mg (FIG. 2: 64 μg/ml), EAEC 3 h
[5] = system: B. anthracis Sterne strain 7702 spores on A549 cells; assay type: cell-based, human; details: A549 cells pretreated 24 h, spores 1 h
S. sonnei on HeLa cells = assay: S. sonnei adherence and internalization in HeLa cells; assay type: cell-based, human; details: HeLa cells pretreated 24 h
[6] = system: EAEC adherence with dialyzed conditioned medium of HEp-2 cells; assay: Effect of dialyzed HEp-2 supernatants on EAEC adherence; assay type: cell-based, human; parameters: dose or concentration left out as unconfirmed; details: HEp-2 treated 24 h, supernatant dialyzed; chambers with or without HEp-2 cells, 3 h
Procedure: HEp-2 cells were cultured in T-175 flasks as described above. […] After 24 h, the medium was collected, loaded into regenerated cellulose dialysis tubing (cutoff, 6 to 8 kDa; Spectra/Por, Rancho Domiguez, Calif.), and dialyzed against 4 liters of PBS changed four times. Each dialysis step lasted at least 6 h and was carried out at 4° C. Dialyzed supernatants were either used immediately in adherence assays or stored at −20° C. until use.
The effect of supernatants on EAEC adherence was determined by mixing EAEC with the dialyzed media from the different antibiotic (or control) treatment groups and adding the bacteria to HEp-2 cells cultured in chambered slides or to chambered slides with no HEp-2 cells. Adherence was visualized microscopically as described above.

[7] = system: enterotoxigenic E coli strains; assay: MIC against rifaximin by agar dilution, ETEC isolates; assay type: cell-based; details: Escherichia coli
Procedure: (§1) Five enterotoxigenic E coli strains, 2 enteroaggregative E coli strains, and 1 S sonnei isolate were included in the study. The isolates had been identified previously from patients with TD acquired in Guadalajara, Mexico, during the summer of 2004 (5). […] The susceptibility of all isolates to rifaximin was determined by agar dilution methodology following the recommendations of the Clinical and Laboratory Standards Institute.

[8] = system: enteroaggregative E coli strains; assay: MIC against rifaximin by agar dilution, EAEC isolates; assay type: cell-based; details: Escherichia coli; 2 EAEC isolates
Procedure: as §1

S sonnei isolate [9] = assay: MIC against rifaximin by agar dilution, S sonnei isolate; assay type: cell-based; details: Shigella sonnei
Procedure: as §1

S sonnei isolate [10] = assay: Isolate viability after rifaximin exposure, S sonnei; assay type: cell-based, Shigella sonnei
[11] = system: MMP-9 in S sonnei isolate; assay: Matrix metalloproteinase-9 detection by gelatin zymography, S sonnei; assay type: cell-based, Shigella sonnei
Procedure: Matrix Metalloproteinase-9 Detection Expression of matrix metalloproteinase-9 (MMP-9) was analyzed using gelatin zymography in all viable EAEC and S. sonnei isolates growing on MacConkey agar. Isolates were suspended in 1 mL of 0.1 M phosphate buffered saline (pH 7.2) and centrifuged at 1000 g for 10 minutes at 4° C. The supernatant was subjected to gelatin zymography to detect MMP-9 activity using a modified Heussen and Dowdle protocol (9). In summary, the supernatant was diluted 1:2 in a sample buffer (125 mM Tris-HCl, pH 6.8, 20% glycerol, 4% sodium dodecyl sulfate, 0.02% bromphenol blue), and 20 μL was loaded on to a 10% SDS-PAGE gel containing 1 mg/mL gelatin. Prestained standard proteins were used as molecular weight markers. After electrophoresis, gels were rinsed with incubation buffer (2.5% triton X-100, 50 mM Tris-HCl, pH 7.4, 0.02% Brij 35, 10 mM CaCl2, 2 μM ZnCl2) for 1 hour at room temperature to remove SDS. Gels were then incubated overnight at 37° C. and subsequently stained with Coomassie brilliant blue R-250 (Thermo Fisher Scientific, Inc, Rockford, Ill.). […] Matrix metalloproteinase-9 was identified among all gelatinolytic proteins by size.

C difficile [12] = details: cited from earlier work
C difficile [13] = details: cited from earlier work; remark: listed apart in the source
EAEC = details: previously established in the applicant's laboratory; cited from earlier work
HEp-2 cells = assay: Cytokine arrays of HEp-2 supernatants (Panomics); details: antibiotic 64 μg/ml, 24 h
ETEC strains = assay: Isolate viability after rifaximin exposure, ETEC
EAEC isolates = assay: Isolate viability after rifaximin exposure, EAEC
C difficile [14] = assay: Susceptibility testing of C difficile isolates (rifaximin agar dilution, rifampin E strips)
[15] = 201 isolates, Canada, 1992 to 2007

Structure (SMILES): CO[C@H]1/C=C/O[C@@]2(C)Oc3c(C)c(O)c4c(O)c(c5c(nc6cc(C)ccn65)c4c3C2=O)NC(=O)/C(C)=C\C=C\[C@H](C)[C@H](O)[C@@H](C)[C@@H](O)[C@@H](C)[C@H](OC(C)=O)[C@@H]1C [Rifaximin, (2S,16Z,18E,20S,21S,22R,23R,24R,25S,26S,27S,28E)-5,6,21,23,25 Pentahydroxy-27-methoxy-2,4,11,16,20,22,24,26-octamethyl-2,7-(epoxypentadeca-(1,11,13)trienimino)benzofuro (4,5-e) pyrido(1,2,-a) benzimidazole-1,15(2H)-dione,25-acetate]
- EAEC adherence to HEp-2 cells (CFU, % of total bacteria added) [1]: significantly lower; also recorded: significantly reduced; also recorded: reduced EAEC adherence
- EAEC bacterial counts in the supernatants ([1]; HEp-2 cells pretreated 24 h, EAEC 3 h): No differences in bacterial counts
- EAEC adherence to HeLa cells [2]: significantly reduced
- EAEC adherence to A549 cells [3]: significantly reduced
- EAEC adherence to HCT-8 cells [4]: Slightly fewer bacteria adhered to rifaximin-pretreated HCT-8 cells, but this difference was not significant
- adherence of B. anthracis [5]: significant reductions
- internalization of B. anthracis ([5]; then gentamicin 100 μg/ml 1 h): significant reductions
- S. sonnei attachment (S. sonnei on HeLa cells): no effect
- S. sonnei internalization (S. sonnei on HeLa cells; gentamicin protection): no effect
- EAEC adherence after mixing with dialyzed supernatants of antibiotic-treated HEp-2 cells [6]: adhered poorly
- MIC ([7]; read-out: MIC, ETEC, 2 ETEC isolates): 128 mg/L (≈ 163 µM)
- MIC ([7]; read-out: MIC, all ETEC and EAEC isolates, 5 ETEC and 2 EAEC isolates): 64 to 128 mg/L (≈ 81.4 to 163 µM)
- MIC [8]: 64 mg/L (≈ 81.4 µM)
- MIC (S sonnei isolate [9]): 16 mg/L (≈ 20.4 µM)
- S sonnei viability after exposure (S sonnei isolate [10]; rifaximin 8 mg/L for 4, 8, 18, and 24 hours): viable
- S sonnei viability after exposure (S sonnei isolate [10]; rifaximin 32 or 64 mg/L at any time point): not viable
- MMP-9 in the S sonnei isolate ([11]; other time points and rifaximin concentrations): either undetectable or the isolate was not viable
- MMP-9 in the S sonnei isolate ([11]; rifaximin 8 mg/L for 4 hours): detectable
- isolates resistant to rifaximin, based on MIC values (C difficile [12]; 110 C difficile isolates): 2.7%
- MIC50 against C difficile (C difficile [12]; 110 isolates, 1983 to 2004): 0.0075 mg/L (≈ 0.00954 µM)
- MIC90 against C difficile (C difficile [12]; 110 isolates, 1983 to 2004): 0.015 mg/L (≈ 0.0191 µM)
- isolates with MIC values >2 μg/mL (C difficile [13]; 201 C difficile isolates): 4%
- MIC50 against C difficile (C difficile [13]; [15]): 0.008 mg/L (≈ 0.0102 µM)
- MIC90 against C difficile (C difficile [13]; [15]): 0.015 mg/L (≈ 0.0191 µM)
- MIC50 for EAEC (EAEC): 64 mg/L
- cytokine profile of HEp-2 supernatants (HEp-2 cells): contained detectable levels of RANTES and IL-4 only; also recorded: reduced the expression of various proinflammatory cytokines
- ETEC viability after exposure (ETEC strains; rifaximin 8 mg/L, 24-hour exposure): viable
- ETEC viability after exposure (ETEC strains; rifaximin 64 mg/L for 18 hours or 32 and 64 mg/L for 24 hours): No ETEC isolates were viable
- ETEC viability after exposure (ETEC strains; rifaximin 8, 32, and 64 mg/L for 4 and 8 hours, 8 and 32 mg/L for 18 hours): viable
- EAEC viability after exposure (EAEC isolates; rifaximin 8 mg/L for 24 hours): viable
- EAEC viability after exposure (EAEC isolates; rifaximin 8, 32, and 64 mg/L at 4, 8, and 18 hours): viable
- EAEC viability after exposure (EAEC isolates; rifaximin 32 and 64 mg/L for 24 hours): no viable isolates were recovered
- MIC50 against C difficile (C difficile [14]; 359 isolates): <0.01 mg/L
- MIC90 against C difficile (C difficile [14]; 359 isolates): 0.25 mg/L (≈ 0.318 µM)
- MIC50 against C difficile (C difficile [14]; 359 isolates, listed as rifaximin): < 0.01 mg/L
- Isolates resistant to rifaximin alone (n = 11), (%) (C difficile [14]; genotype A +, B +, BT +, tcdC-del +): (0) %
- Isolates resistant to rifaximin alone (n = 11), (%) (C difficile [14]; genotype A +, B +, BT +, tcdC-del −): (18) %
- Isolates resistant to rifaximin alone (n = 11), (%) (C difficile [14]; genotype A +, B +, BT −, tcdC-del +): (9) %
- Isolates resistant to rifaximin alone (n = 11), (%) (C difficile [14]; genotype A +, B +, BT −, tcdC-del −): (55) %
- Isolates resistant to rifaximin alone (n = 11), (%) (C difficile [14]; genotype A −, B −, BT −, tcdC-del −): (18) %
